# Source: patent US9187472B2 (AbbVie Inc., priority 2012, dated 2015)
# Columns and labels:
# [1] = target: NAMPT (human, recombinant, C-terminally His-tagged) (Homo sapiens, UniProt P43490); test: Time-Resolved Fluorescence Resonance Energy Transfer (TR-FRET) Binding Assay of NAMPT; details: without substrates; 6.8 nM NAMPT, 200 nM probe, 3 hours equilibration
# Procedure, shortened: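 Competitive binding against an Oregon Green 488 tracer (200 nM), 6.8 nM His-tagged enzyme, 1 nM Tb antibody, 2% DMSO, 3 h at RT. IC50 derived from TR-FRET ratios.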
# NAMPT = NAMPT (Homo sapiens, UniProt P43490); test: TR-FRET Binding Assay of NAMPT with PRPP; details: with 200 μM PRPP and 2.5 mM ATP; 2 nM NAMPT, 2 nM probe, 16 hours equilibration
# Chain of NAMPT (P43490 whole entry): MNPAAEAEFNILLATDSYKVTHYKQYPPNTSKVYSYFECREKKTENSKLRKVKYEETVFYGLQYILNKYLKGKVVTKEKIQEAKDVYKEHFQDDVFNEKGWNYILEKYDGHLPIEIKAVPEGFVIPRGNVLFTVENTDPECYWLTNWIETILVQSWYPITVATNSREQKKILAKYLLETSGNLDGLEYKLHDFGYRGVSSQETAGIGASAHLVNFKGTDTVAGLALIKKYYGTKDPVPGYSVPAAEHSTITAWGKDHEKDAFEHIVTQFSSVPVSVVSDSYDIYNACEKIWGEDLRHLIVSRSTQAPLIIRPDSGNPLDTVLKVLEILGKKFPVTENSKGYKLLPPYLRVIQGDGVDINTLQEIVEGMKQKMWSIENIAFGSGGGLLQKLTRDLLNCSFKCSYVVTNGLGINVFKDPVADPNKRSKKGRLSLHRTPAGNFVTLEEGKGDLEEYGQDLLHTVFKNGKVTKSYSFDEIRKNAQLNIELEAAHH
# Procedure, shortened: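 Read-out is TR-FRET after a 16 h equilibration allowing possible compound modification by the enzyme. Final mix: 2 nM NAMPT, 2 nM probe, 1 nM Tb-anti-His antibody, 200 μM PRPP, 2.5 mM ATP, 2% DMSO.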
# PC3 cells = test: NAMPT Cell Proliferation Assay; assay type: cell-based; details: Homo sapiens, PC-3, 120 h, 5 days incubation, cell viability by Cell Titer Glo
# Procedure, shortened: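 Cell Titer Glo viability after 5-day exposure (37° C, 5% CO2); PC3, 500 cells/well, RPMI + 10% heat-inactivated FBS, overnight attachment before dosing. Dose range 10 μM to 1×10^−5 μM, 10-fold steps. IC50 = sigmoidal fit of % inhibition.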
# Chain of NAMPT (human, recombinant, C-terminally His-tagged) (P43490 whole entry): as above
SMILES,IC50 [1],IC50 (NAMPT),IC50 (PC3 cells)
"O=C(NCc1ccn2ccnc2c1)Nc1ccc(O[C@@H]2CCN(C(=O)c3ccc(F)cc3F)C2)cc1 [Example 692, 1-(4-{[(3R)-1-(2,4-difluorobenzoyl)pyrrolidin-3-yl]oxy}phenyl)-3-(imidazo[1,2-a]pyridin-7-ylmethyl)urea]",83.9 nM,1.19 nM,19.8 nM
"O=C(NCc1ccn2ccnc2c1)Nc1ccc(O[C@@H]2CCN(C(=O)c3ccc(C(F)(F)F)cc3)C2)cc1 [Example 693, 1-(imidazo[1,2-a]pyridin-7-ylmethyl)-3-[4-({(3R)-1-[4-(trifluoromethyl)benzoyl]pyrrolidin-3-yl}oxy)phenyl]urea]",781 nM,1.42 nM,652 nM
"O=C(NCc1ccn2ccnc2c1)Nc1ccc(O[C@@H]2CCN(C(=O)c3cc(F)cc(F)c3)C2)cc1 [Example 694, 1-(4-{[(3R)-1-(3,5-difluorobenzoyl)pyrrolidin-3-yl]oxy}phenyl)-3-(imidazo[1,2-a]pyridin-7-ylmethyl)urea]",163 nM,1.12 nM,24.7 nM
"O=C(NCc1ccn2ccnc2c1)Nc1ccc(O[C@@H]2CCN(C(=O)c3ccc(Cl)cc3)C2)cc1 [Example 696, 1-(4-{[(3R)-1-(4-chlorobenzoyl)pyrrolidin-3-yl]oxy}phenyl)-3-(imidazo[1,2-a]pyridin-7-ylmethyl)urea]",272 nM,0.725 nM,667 nM
"O=C(NCc1ccn2ccnc2c1)c1cnc(C2CCN(c3ccccn3)CC2)s1 [Example 697, N-(imidazo[1,2-a]pyridin-7-ylmethyl)-2-[1-(pyridin-2-yl)piperidin-4-yl]-1,3-thiazole-5-carboxamide]",735 nM,0.802 nM,633 nM
"O=C(NCc1ccn2ccnc2c1)c1ccc(C2CCN(C(=O)c3c(F)cccc3F)CC2)cc1 [Example 700, 4-[1-(2,6-difluorobenzoyl)piperidin-4-yl]-N-(imidazo[1,2-a]pyridin-7-ylmethyl)benzamide]",68.4 nM,1.03 nM,3.25 nM
"O=C(NCc1ccn2ccnc2c1)c1ccc(C2CCN(C(=O)c3ccc(F)c(F)c3)CC2)cc1 [Example 701, 4-[1-(3,4-difluorobenzoyl)piperidin-4-yl]-N-(imidazo[1,2-a]pyridin-7-ylmethyl)benzamide]",367 nM,0.856 nM,76.2 nM
"O=C(NCc1ccn2ccnc2c1)c1ccc(C2CCN(C(=O)c3cccc(C(F)(F)F)c3)CC2)cc1 [Example 702, N-(imidazo[1,2-a]pyridin-7-ylmethyl)-4-{1-[3-(trifluoromethyl)benzoyl]piperidin-4-yl}benzamide]",568 nM,1.29 nM,88 nM
"O=C(NCc1ccn2ccnc2c1)c1ccc(C2CCN(C(=O)c3cccc(OC(F)(F)F)c3)CC2)cc1 [Example 703, N-(imidazo[1,2-a]pyridin-7-ylmethyl)-4-{1-[3-(trifluoromethoxy)benzoyl]piperidin-4-yl}benzamide]",559 nM,0.824 nM,90.3 nM
"O=C(NCc1ccn2ccnc2c1)c1ccc(C2CCN(C(=O)c3ccc(OC(F)(F)F)cc3)CC2)cc1 [Example 704, N-(imidazo[1,2-a]pyridin-7-ylmethyl)-4-{1-[4-(trifluoromethoxy)benzoyl]piperidin-4-yl}benzamide]",503 nM,0.777 nM,91.5 nM
"O=C(NCc1ccn2ccnc2c1)c1ccc(C2CCN(C(=O)c3ccc(C(F)(F)F)cc3)CC2)cc1 [Example 705, N-(imidazo[1,2-a]pyridin-7-ylmethyl)-4-{1-[4-(trifluoromethyl)benzoyl]piperidin-4-yl}benzamide]",876 nM,1.63 nM,95.8 nM
"O=C(NCc1ccn2ccnc2c1)c1ccc(C2CCN(C(=O)c3ccccc3OC(F)(F)F)CC2)cc1 [Example 706, N-(imidazo[1,2-a]pyridin-7-ylmethyl)-4-{1-[2-(trifluoromethoxy)benzoyl]piperidin-4-yl}benzamide]",84.1 nM,0.937 nM,6.54 nM
"O=C(NCc1ccn2ccnc2c1)c1ccc(C2CCN(C(=O)Cc3ccccc3)CC2)cc1 [Example 707, N-(imidazo[1,2-a]pyridin-7-ylmethyl)-4-[1-(phenylacetyl)piperidin-4-yl]benzamide]",277 nM,0.624 nM,74.1 nM
"O=C(NCc1ccn2ccnc2c1)c1ccc(C2CCN(C(=O)c3ccccc3C(F)(F)F)CC2)cc1 [Example 708, N-(imidazo[1,2-a]pyridin-7-ylmethyl)-4-{1-[2-(trifluoromethyl)benzoyl]piperidin-4-yl}benzamide]",60 nM,0.9 nM,5.97 nM
"CC1CC1C(=O)N1CCC(c2ccc(NC(=O)NCc3ccn4ccnc4c3)cc2)CC1 (stereo not drawn) [Example 711, 1-(imidazo[1,2-a]pyridin-7-ylmethyl)-3-(4-{1-[(2-methylcyclopropyl)carbonyl]piperidin-4-yl}phenyl)urea]",88.5 nM,1.11 nM,3.25 nM
"O=C(NCc1ccn2ccnc2c1)Nc1ccc(C2CCN(C(=O)CC3CC3)CC2)cc1 [Example 712, 1-{4-[1-(cyclopropylacetyl)piperidin-4-yl]phenyl}-3-(imidazo[1,2-a]pyridin-7-ylmethyl)urea]",91.1 nM,0.907 nM,5.8 nM
"O=C(NCc1ccn2ccnc2c1)Nc1ccc(C2CCN(C(=O)CCC(F)(F)F)CC2)cc1 [Example 714, 1-(imidazo[1,2-a]pyridin-7-ylmethyl)-3-{4-[1-(4,4,4-trifluorobutanoyl)piperidin-4-yl]phenyl}urea]",168 nM,0.991 nM,17.4 nM
"O=C(NCc1ccn2ccnc2c1)Nc1ccc(C2CCN(C(=O)C3CCC(F)(F)CC3)CC2)cc1 [Example 715, 1-(4-{1-[(4,4-difluorocyclohexyl)carbonyl]piperidin-4-yl}phenyl)-3-(imidazo[1,2-a]pyridin-7-ylmethyl)urea]",65.9 nM,0.771 nM,3.49 nM
"O=C(NCc1ccn2ccnc2c1)c1ccc(C2CCN(C(=O)C3CC3)C2)s1 (stereo not drawn) [Example 717, 5-[1-(cyclopropylcarbonyl)pyrrolidin-3-yl]-N-(imidazo[1,2-a]pyridin-7-ylmethyl)thiophene-2-carboxamide]",186 nM,0.428 nM,72.4 nM

# Molecules with a lower IC50 [1], results first:
IC50 [1],IC50 (NAMPT),IC50 (PC3 cells),SMILES
50.2 nM,0.607 nM,21 nM,"O=C(NCc1ccn2ccnc2c1)Nc1ccc(C2CCN(C(=O)Cc3ccccc3)CC2)cc1 [Example 716, 1-(imidazo[1,2-a]pyridin-7-ylmethyl)-3-{4-[1-(phenylacetyl)piperidin-4-yl]phenyl}urea]"
49.1 nM,1.25 nM,2.76 nM,"CC[C@H](C)C(=O)N1CCC(c2ccc(NC(=O)NCc3ccn4ccnc4c3)cc2)CC1 [Example 710, 1-(imidazo[1,2-a]pyridin-7-ylmethyl)-3-(4-{1-[(2S)-2-methylbutanoyl]piperidin-4-yl}phenyl)urea]"
44.3 nM,0.689 nM,2.86 nM,"O=C(NCc1ccn2ccnc2c1)Nc1ccc(C2CCN(C(=O)CC(F)(F)F)CC2)cc1 [Example 713, 1-(imidazo[1,2-a]pyridin-7-ylmethyl)-3-{4-[1-(3,3,3-trifluoropropanoyl)piperidin-4-yl]phenyl}urea]"
41.1 nM,0.721 nM,5.27 nM,"O=C(NCc1ccn2ccnc2c1)c1ccc(C2CCN(C(=O)c3ccccc3Cl)CC2)cc1 [Example 699, 4-[1-(2-chlorobenzoyl)piperidin-4-yl]-N-(imidazo[1,2-a]pyridin-7-ylmethyl)benzamide]"
36.4 nM,0.629 nM,0.67 nM,"O=C(NCc1ccn2ccnc2c1)c1ccc(-c2cnn(CC3(F)CCOCC3)c2)s1 [Example 698, 5-{1-[(4-fluorotetrahydro-2H-pyran-4-yl)methyl]-1H-pyrazol-4-yl}-N-(imidazo[1,2-a]pyridin-7-ylmethyl)thiophene-2-carboxamide]"
23.6 nM,0.755 nM,1.25 nM,"Cc1ccc(C(=O)N2CCC(c3ccc(C(=O)NCc4ccn5ccnc5c4)s3)C2)cc1 (stereo not drawn) [Example 718, N-(imidazo[1,2-a]pyridin-7-ylmethyl)-5-[1-(4-methylbenzoyl)pyrrolidin-3-yl]thiophene-2-carboxamide]"
19.4 nM,0.473 nM,3.36 nM,"CCCC(=O)N1CCC(c2ccc(NC(=O)NCc3ccn4ccnc4c3)cc2)CC1 [Example 709, 1-[4-(1-butanoylpiperidin-4-yl)phenyl]-3-(imidazo[1,2-a]pyridin-7-ylmethyl)urea]"
13.7 nM,0.621 nM,5.82 nM,"O=C(NCc1ccn2ccnc2c1)Nc1ccc(O[C@@H]2CCN(C(=O)c3ccccc3Cl)C2)cc1 [Example 695, 1-(4-{[(3R)-1-(2-chlorobenzoyl)pyrrolidin-3-yl]oxy}phenyl)-3-(imidazo[1,2-a]pyridin-7-ylmethyl)urea]"
6.32 nM,0.835 nM,2.37 nM,"O=C(NCc1ccn2ccnc2c1)Nc1ccc(C2CCN(C(=O)c3ccccc3F)CC2)cc1 [Example 719, 1-{4-[1-(2-fluorobenzoyl)piperidin-4-yl]phenyl}-3-(imidazo[1,2-a]pyridin-7-ylmethyl)urea]"
